Columns and labels:
SW620 (colon cancer) = experiment: SRB cytotoxicity assay, SW620; format: cell-based; conditions: Homo sapiens, SW-620, 48 h incubation, mean ± SEM of 3 independent experiments
Text: (§1) Three human cancer cell lines: colon cancer (SW620), prostate cancer (PC3), and lung cancer (NCI-H23) were used for sceening the cytotoxicity of the compounds. The cancer cells were purchased from American Type Culture Collection (Manassas, VA, USA). Other reagents/media for cell culture were obtained from GIBCO (Grand Island, New York, USA). The testing cancer cells were culture in Dulbecco’s Modified Eagle Medium until confluence. Then, they were trypsinized and suspended at the level of 3 × 10^4 cells/mL of cell culture medium. On day 0, cancer cells were seeded at a volume of 180 µL/well of 96-well plates and incubated for 24 h at 37 °C in a 5% CO2 incubator. On day 1, 20 µL of various concentrations of testing compounds were added to each well of the 96-well plates. Chemicals were dissolved in dimethyl sulfoxide (DMSO, stock) and diluted in culture medium (1% DMSO) before adding to the culture. After 48 h incubation, the sulforhodamine B assay was used for cell density determination with slight modifications[22]–[26]. The Probits were used for the calculation of IC50 values. The reported IC50 were the averages of three independent screening (SD ≤ 10%)[27].
(§2) Two series of compounds synthesized (4a–p and 5a–f) were evaluated for their cytotoxicity against three human cancer cell lines, including SW620 (colon cancer), PC3 (prostate cancer), NCI-H23 (lung cancer), using SRB method as described previously[22] with slight modifications[23]–[26].

PC3 (prostate cancer) = experiment: SRB cytotoxicity assay, PC3; format: cell-based; conditions: Homo sapiens, 48 h incubation, mean ± SEM of 3 independent experiments
Text: as §1, §2

NCI-H23 (lung cancer) = experiment: SRB cytotoxicity assay, NCI-H23; format: cell-based; conditions: Homo sapiens, 48 h incubation, mean ± SEM of 3 independent experiments
Text: as §1, §2

[1] = Cytotoxicity on normal mesenchymal stem cells; format: cell-based; conditions: human bone marrow-derived mesenchymal stem cells; mean ± SEM; read-out: Cytotoxicity (IC50) MSCs
Procedure: Overally, 5-fluorinated compounds (4i–p and 5d–f) were slightly more cytotoxic than non-fluorinated ones (4a–h, 5a–c). For compounds in series 4a–p, it was observed that, electron-releasing substituents (–OCH3, OH) were generally better than electron-withdrawing groups (–Cl) for cytotoxicity. Especially, compounds with 2-OH substituents produced the best cytotoxicity. The addition of either 4-OCH3 or 3-allyl groups further enhanced cytotoxicity of the related compounds (4g, 4h and 4o, 4p).

O=C(CN1C(=O)Cc2ccccc21)N/N=C/c1ccccc1 [Compound 4a, (E)-N'-Benzylidene-2-(2-oxoindolin-1-yl)acetohydrazide]
IC50 (SW620 (colon cancer)): 10.1 ± 0.91 µM | IC50 (PC3 (prostate cancer)): 12.2 ± 0.99 µM | IC50 (NCI-H23 (lung cancer)): 10.4 ± 0.87 µM | IC50 [1]: > 30 µM | melting point: 167 to 168 °C

O=C(CN1C(=O)Cc2ccccc21)N/N=C/c1ccccc1Cl [Compound 4b, (E)-N'-(2-Chlorobenzylidene)-2-(2-oxoindolin-1-yl)acetohydrazide]
IC50 (SW620 (colon cancer)): 9.91 ± 0.76 µM | IC50 (PC3 (prostate cancer)): 8.72 ± 0.71 µM | IC50 (NCI-H23 (lung cancer)): 8.34 ± 0.52 µM | IC50 [1]: > 30 µM | melting point: 179 to 181 °C

O=C(CN1C(=O)Cc2ccccc21)N/N=C/c1cccc(Cl)c1 [Compound 4c, (E)-N'-(3-Chlorobenzylidene)-2-(2-oxoindolin-1-yl)acetohydrazide]
IC50 (SW620 (colon cancer)): 15.3 ± 1.01 µM | IC50 (PC3 (prostate cancer)): 14.2 ± 1 µM | IC50 (NCI-H23 (lung cancer)): 13.5 ± 1.11 µM | IC50 [1]: > 30 µM | melting point: 181 to 182 °C

O=C(CN1C(=O)Cc2ccccc21)N/N=C/c1ccc(Cl)cc1 [Compound 4d, (E)-N'-(4-Chlorobenzylidene)-2-(2-oxoindolin-1-yl)acetohydrazide]
IC50 (SW620 (colon cancer)): 16.3 ± 1.21 µM | IC50 (PC3 (prostate cancer)): 17.4 ± 1.34 µM | IC50 (NCI-H23 (lung cancer)): 15.6 ± 1.43 µM | IC50 [1]: > 30 µM | melting point: 185 to 187 °C

COc1ccc(/C=N/NC(=O)CN2C(=O)Cc3ccccc32)cc1 [Compound 4e, (E)-N'-(4-Methoxybenzylidene)-2-(2-oxoindolin-1-yl)acetohydrazide]
IC50 (SW620 (colon cancer)): 9.01 ± 0.74 µM | IC50 (PC3 (prostate cancer)): 7.43 ± 0.45 µM | IC50 (NCI-H23 (lung cancer)): 8.72 ± 0.33 µM | IC50 [1]: > 30 µM | melting point: 168 to 169 °C

COc1ccc(/C=N/NC(=O)CN2C(=O)Cc3ccccc32)c(O)c1 [Compound 4g, (E)-N'-(2-Hydroxy-4-methoxybenzylidene)-2-(2-oxoindolin-1-yl)acetohydrazide]
IC50 (SW620 (colon cancer)): 3.34 ± 0.31 µM | IC50 (PC3 (prostate cancer)): 4.32 ± 0.34 µM | IC50 (NCI-H23 (lung cancer)): 2.59 ± 0.21 µM | IC50 [1]: 15.5 ± 0.64 µM | melting point: 177 to 178 °C

O=C(CN1C(=O)Cc2cc(F)ccc21)N/N=C/c1ccccc1 [Compound 4i, (E)-N'-Benzylidene-2-(5-fluoro-2-oxoindolin-1-yl)acetohydrazide]
IC50 (SW620 (colon cancer)): 9.54 ± 0.74 µM | IC50 (PC3 (prostate cancer)): 8.56 ± 0.52 µM | IC50 (NCI-H23 (lung cancer)): 8.44 ± 0.67 µM | IC50 [1]: > 30 µM | melting point: 173 to 174 °C

O=C(CN1C(=O)Cc2cc(F)ccc21)N/N=C/c1ccccc1Cl [Compound 4j, (E)-N'-(2-Chlorobenzylidene)-2-(5-fluoro-2-oxoindolin-1-yl)acetohydrazide]
IC50 (SW620 (colon cancer)): 7.56 ± 0.57 µM | IC50 (PC3 (prostate cancer)): 8.43 ± 0.59 µM | IC50 (NCI-H23 (lung cancer)): 8 ± 0.98 µM | IC50 [1]: > 30 µM | melting point: 185 to 186 °C

O=C(CN1C(=O)Cc2cc(F)ccc21)N/N=C/c1cccc(Cl)c1 [Compound 4k, (E)-N'-(3-Chlorobenzylidene)-2-(5-fluoro-2-oxoindolin-1-yl)acetohydrazide]
IC50 (SW620 (colon cancer)): 16.4 ± 1.19 µM | IC50 (PC3 (prostate cancer)): 16.4 ± 1.56 µM | IC50 (NCI-H23 (lung cancer)): 17.4 ± 1.54 µM | IC50 [1]: > 30 µM | melting point: 187 to 188 °C

O=C(CN1C(=O)Cc2cc(F)ccc21)N/N=C/c1ccc(Cl)cc1 [Compound 4l, (E)-N'-(4-Chlorobenzylidene)-2-(5-fluoro-2-oxoindolin-1-yl)acetohydrazide]
IC50 (SW620 (colon cancer)): 14.3 ± 1.21 µM | IC50 (PC3 (prostate cancer)): 17.8 ± 1.58 µM | IC50 (NCI-H23 (lung cancer)): 16.4 ± 1.77 µM | IC50 [1]: > 30 µM | melting point: 191 to 192 °C

COc1ccc(/C=N/NC(=O)CN2C(=O)Cc3cc(F)ccc32)cc1 [Compound 4m, (E)-N'-(4-Methoxybenzylidene)-2-(5-fluoro-2-oxoindolin-1-yl)acetohydrazide]
IC50 (SW620 (colon cancer)): 7.52 ± 0.63 µM | IC50 (PC3 (prostate cancer)): 7.33 ± 0.42 µM | IC50 (NCI-H23 (lung cancer)): 7.43 ± 0.56 µM | IC50 [1]: > 30 µM | melting point: 175 to 176 °C

O=C(CN1C(=O)Cc2ccccc21)N/N=C1\C(=O)Nc2ccccc21 [Compound 5a, (Z)-2-(2-Oxoindolin-1-yl)-N'-(2-oxoindolin-3-ylidene)acetohydrazide]
IC50 (SW620 (colon cancer)): 16.4 ± 1.05 µM | IC50 (PC3 (prostate cancer)): 14.3 ± 1.21 µM | IC50 (NCI-H23 (lung cancer)): 15.3 ± 1.32 µM | IC50 [1]: > 30 µM | melting point: 191 to 192 °C

O=C(CN1C(=O)Cc2ccccc21)N/N=C1\C(=O)Nc2ccc(Cl)cc21 [Compound 5b, (Z)-N'-(5-Chloro-2-oxoindolin-3-ylidene)-2-(2-oxoindolin-1-yl)acetohydrazide]
IC50 (SW620 (colon cancer)): 17.4 ± 1.43 µM | IC50 (PC3 (prostate cancer)): 18.4 ± 1.53 µM | IC50 (NCI-H23 (lung cancer)): 16.5 ± 1.33 µM | IC50 [1]: > 30 µM | melting point: 201 to 202 °C

Cc1ccc2c(c1)/C(=N/NC(=O)CN1C(=O)Cc3ccccc31)C(=O)N2 [Compound 5c, (Z)-N'-(5-Methyl-2-oxoindolin-3-ylidene)-2-(2-oxoindolin-1-yl)acetohydrazide]
IC50 (SW620 (colon cancer)): 17.6 ± 1.32 µM | IC50 (PC3 (prostate cancer)): 19.6 ± 2.01 µM | IC50 (NCI-H23 (lung cancer)): 18.4 ± 1.87 µM | IC50 [1]: > 30 µM | melting point: 198 to 199 °C

O=C(CN1C(=O)Cc2cc(F)ccc21)N/N=C1\C(=O)Nc2ccccc21 [Compound 5d, (Z)-2-(5-Fluoro-2-oxoindolin-1-yl)-N'-(2-oxoindolin-3-ylidene)acetohydrazide]
IC50 (SW620 (colon cancer)): 12.4 ± 1.21 µM | IC50 (PC3 (prostate cancer)): 14.6 ± 1.27 µM | IC50 (NCI-H23 (lung cancer)): 13.6 ± 1.31 µM | IC50 [1]: > 30 µM | melting point: 215 to 216 °C

O=C(CN1C(=O)Cc2cc(F)ccc21)N/N=C1\C(=O)Nc2ccc(Cl)cc21 [Compound 5e, (Z)-N'-(5-Chloro-2-oxoindolin-3-ylidene)-2-(5-fluoro-2-oxoindolin-1-yl)acetohydrazide]
IC50 (SW620 (colon cancer)): 15.3 ± 1.5 µM | IC50 (PC3 (prostate cancer)): 14.7 ± 1.71 µM | IC50 (NCI-H23 (lung cancer)): 15.5 ± 1.36 µM | IC50 [1]: > 30 µM | melting point: 221 to 222 °C

Cc1ccc2c(c1)/C(=N/NC(=O)CN1C(=O)Cc3cc(F)ccc31)C(=O)N2 [Compound 5f, (Z)-2-(5-Fluoro-2-oxoindolin-1-yl)-N'-(5-methyl-2-oxoindolin-3-ylidene)acetohydrazide]
IC50 (SW620 (colon cancer)): 12.7 ± 1.22 µM | IC50 (PC3 (prostate cancer)): 15.3 ± 1.7 µM | IC50 (NCI-H23 (lung cancer)): 14.9 ± 1.83 µM | IC50 [1]: > 30 µM | melting point: 217 to 218 °C

Source: PMC8861050, “Design, synthesis and evaluation of novel 2-oxoindoline-based acetohydrazides as antitumor agents” (Scientific Reports, 2022)
